In PubChem BioAssay (NCI):
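GI50 = concentration required for 50% inhibition of growth. At the TGI there is no net growth.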

How the values were obtained:
Assay in all cases: NCI tumour cell line growth inhibition, 384-well format
MOLT-4 leukemia = tested on: MOLT-4 leukemia
RPMI-8226 leukemia = tested on: RPMI-8226 leukemia
HCT-116 colon = tested on: HCT-116 colon
OVCAR-4 ovarian = tested on: OVCAR-4 ovarian
MCF7 breast = tested on: MCF7 breast
EKVX NSCLC = tested on: EKVX NSCLC
HOP-92 NSCLC = tested on: HOP-92 NSCLC
COLO 205 colon = tested on: COLO 205 colon
SK-MEL-5 melanoma = tested on: SK-MEL-5 melanoma
NCI-H460 NSCLC = tested on: NCI-H460 NSCLC
MDA-MB-231 breast = tested on: MDA-MB-231 breast
HT29 colon = tested on: HT29 colon
SF-268 CNS = tested on: SF-268 CNS
M14 melanoma = tested on: M14 melanoma
NCI-H23 lung = tested on: NCI-H23 lung
SK-MEL-28 melanoma = tested on: SK-MEL-28 melanoma
UO-31 renal = tested on: UO-31 renal
MDA-MB-435 melanoma = tested on: MDA-MB-435 melanoma
SF-539 CNS = tested on: SF-539 CNS
SN12C renal = tested on: SN12C renal
OVCAR-3 ovarian = tested on: OVCAR-3 ovarian
SNB-19 CNS = tested on: SNB-19 CNS
UACC-62 melanoma = tested on: UACC-62 melanoma
TK-10 renal = tested on: TK-10 renal
A498 renal = tested on: A498 renal
NCI-H226 lung = tested on: NCI-H226 lung
OVCAR-8 ovarian = tested on: OVCAR-8 ovarian
CCRF-CEM leukemia = tested on: CCRF-CEM leukemia
SF-295 CNS = tested on: SF-295 CNS
RXF 393 renal = tested on: RXF 393 renal
SNB-75 CNS = tested on: SNB-75 CNS
SW-620 colon = tested on: SW-620 colon
HS 578T breast = tested on: HS 578T breast
CAKI-1 renal = tested on: CAKI-1 renal
HL-60(TB) leukemia = tested on: HL-60(TB) leukemia
786-0 renal = tested on: 786-0 renal
OVCAR-5 ovarian = tested on: OVCAR-5 ovarian
NCI-H322M lung = tested on: NCI-H322M lung
BT-549 breast = tested on: BT-549 breast
A549 NSCLC = tested on: A549 NSCLC
ACHN renal = tested on: ACHN renal
IGROV1 ovarian = tested on: IGROV1 ovarian
UACC-257 melanoma = tested on: UACC-257 melanoma
HOP-62 NSCLC = tested on: HOP-62 NSCLC
T-47D breast = tested on: T-47D breast
MDA-MB-468 breast = tested on: MDA-MB-468 breast
KM12 colon = tested on: KM12 colon
SR leukemia = tested on: SR leukemia
DU-145 prostate = tested on: DU-145 prostate
U251 glioblastoma = tested on: U251 glioblastoma
SK-OV-3 ovarian = tested on: SK-OV-3 ovarian
HCC-2998 colon = tested on: HCC-2998 colon
NCI-H522 lung = tested on: NCI-H522 lung
HCT-15 colon = tested on: HCT-15 colon
MALME-3M melanoma = tested on: MALME-3M melanoma
PC-3 prostate = tested on: PC-3 prostate
NCI/ADR-RES ovarian = tested on: NCI/ADR-RES ovarian
LOX IMVI melanoma = tested on: LOX IMVI melanoma

## C[C@H](Nc1ncnc2nc[nH]c12)c1cc2cccc(Cl)c2c(=O)n1-c1ccccc1
MOLT-4 leukemia
  GI50: 2.37 µM
  TGI: 12.5 µM
RPMI-8226 leukemia
  GI50: 25.2 µM
  TGI: > 78.7 µM
HCT-116 colon
  GI50: 28.7 µM
  TGI: > 100 µM
OVCAR-4 ovarian
  GI50: 11.4 µM
  TGI: 90.6 µM
MCF7 breast
  GI50: 4.31 µM
  TGI: > 100 µM
EKVX NSCLC
  GI50: 15.2 µM
  TGI: > 100 µM
HOP-92 NSCLC
  GI50: 2.31 µM
  TGI: 77.7 µM
COLO 205 colon
  GI50: 42.8 µM
  TGI: > 100 µM
SK-MEL-5 melanoma
  GI50: 18.2 µM
  TGI: > 85.1 µM
NCI-H460 NSCLC
  GI50: 15.9 µM
  TGI: > 100 µM
MDA-MB-231 breast
  GI50: 25.5 µM
  TGI: > 100 µM
HT29 colon
  GI50: 18.8 µM
  TGI: > 100 µM
SF-268 CNS
  GI50: 24.7 µM
  TGI: > 84.7 µM
M14 melanoma
  GI50: 23.9 µM
  TGI: > 100 µM
NCI-H23 lung
  GI50: 25.9 µM
  TGI: > 100 µM
SK-MEL-28 melanoma
  GI50: 8.44 µM
  TGI: 98.8 µM
UO-31 renal
  GI50: 3.89 µM
  TGI: > 93.1 µM
MDA-MB-435 melanoma
  GI50: > 100 µM
  TGI: > 100 µM
SF-539 CNS
  GI50: 19.7 µM
  TGI: > 100 µM
SN12C renal
  GI50: 3.25 µM
  TGI: > 100 µM
OVCAR-3 ovarian
  GI50: 3.65 µM
  TGI: > 48.4 µM
SNB-19 CNS
  GI50: 44.5 µM
  TGI: > 100 µM
UACC-62 melanoma
  GI50: 5.86 µM
  TGI: > 64.2 µM
TK-10 renal
  GI50: 15 µM
  TGI: > 100 µM
A498 renal
  GI50: 1.09 µM
  TGI: 12.8 µM
NCI-H226 lung
  GI50: 33.4 µM
  TGI: > 100 µM
OVCAR-8 ovarian
  GI50: 25.8 µM
  TGI: > 100 µM
CCRF-CEM leukemia
  GI50: 4.6 µM
  TGI: 90.7 µM
SF-295 CNS
  GI50: 4.95 µM
  TGI: > 40.2 µM
RXF 393 renal
  GI50: 0.104 µM
  TGI: 1.3 µM
SNB-75 CNS
  GI50: 0.103 µM
  TGI: 2.41 µM
SW-620 colon
  GI50: > 100 µM
  TGI: > 100 µM
HS 578T breast
  GI50: 3.41 µM
  TGI: 27.7 µM
CAKI-1 renal
  GI50: 4.09 µM
  TGI: > 80 µM
HL-60(TB) leukemia
  GI50: 3.53 µM
  TGI: > 36.4 µM
786-0 renal
  GI50: 2.8 µM
  TGI: > 64.9 µM
OVCAR-5 ovarian
  GI50: 32.9 µM
  TGI: > 100 µM
NCI-H322M lung
  GI50: 15.5 µM
  TGI: > 72 µM
BT-549 breast
  GI50: 1.29 µM
  TGI: 36.6 µM
A549 NSCLC
  GI50: 14.5 µM
  TGI: > 90.4 µM
ACHN renal
  GI50: 16.8 µM
  TGI: > 100 µM
IGROV1 ovarian
  GI50: 2.43 µM
  TGI: 10.2 µM
UACC-257 melanoma
  GI50: 27 µM
  TGI: > 100 µM
HOP-62 NSCLC
  GI50: 30.7 µM
  TGI: > 100 µM
T-47D breast
  GI50: 1.6 µM
  TGI: 17.6 µM
MDA-MB-468 breast
  GI50: 1.23 µM
  TGI: 14.9 µM
KM12 colon
  GI50: 43.2 µM
  TGI: > 100 µM
SR leukemia
  GI50: 14 µM
  TGI: 40.1 µM
DU-145 prostate
  GI50: 24.6 µM
  TGI: > 100 µM
U251 glioblastoma
  GI50: 47.3 µM
  TGI: > 100 µM
SK-OV-3 ovarian
  GI50: 14.3 µM
  TGI: > 79.2 µM
HCC-2998 colon
  GI50: 29.7 µM
  TGI: 92.1 µM
NCI-H522 lung
  GI50: 16.8 µM
  TGI: > 83.3 µM
HCT-15 colon
  GI50: 35.2 µM
  TGI: > 100 µM
MALME-3M melanoma
  GI50: 6.18 µM
  TGI: 49.8 µM
PC-3 prostate
  GI50: 1.46 µM
  TGI: > 79.5 µM
NCI/ADR-RES ovarian
  GI50: > 100 µM
  TGI: > 100 µM
LOX IMVI melanoma
  GI50: 32.5 µM
  TGI: > 100 µM
